In patent US6737383B1, “Herbicidal oxadiazolidines” (priority 1999, dated 2004):

How the values were obtained:
bedstraw = test: Test B pre/postemergence bedstraw; format: in vivo, Galium aparine; details: Preemergence
Outline: (§1)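 Test chemicals in a non-phytotoxic solvent mixture with surfactant were sprayed preemergence onto planted seeds and postemergence onto plants 2 to 18 cm tall (1- to 4-leaf stage). After twelve to sixteen days in a greenhouse, injury was visually rated against untreated controls from 0 (no effect) to 10 (complete control).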

soybean = test: Test B pre/postemergence soybean; format: in vivo, Glycine max; details: for Soybean plant response rating: scale of 0 to 10 where 0 is no effect and 10 is complete control
Outline: as §1

wild oat [1] = test: Test B pre/postemergence wild oat; format: in vivo, Avena fatua; details: for Wild oats plant response rating: scale of 0 to 10 where 0 is no effect and 10 is complete control
Outline: as §1

bamyardgrass = test: Test B flood test barnyardgrass; format: in vivo, Echinochloa crus-galli
Outline: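 Plants were grown to the 2-leaf stage before treatment with test chemical, then held in a greenhouse for twelve to sixteen days. Injury was visually rated against untreated controls on a 0–10 scale, where 0 is no effect and 10 is complete control.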

winter wheat [2] = test: Test E winter wheat; format: in vivo, Triticum aestivum; details: Postemergence, 0 to 100 scale, 0 is no effect, 100 is complete control
Outline: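 For postemergence, plants at the 1- to 4-leaf stage, in a 60:40 mix of sandy loam and potting mix, treated with compound formulated in a surfactant-containing non-phytotoxic solvent. Visual assessment versus untreated controls followed roughly 21–28 days in the greenhouse.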

blackgrass = test: Test E blackgrass; format: in vivo, Alopecurus myosuroides; details: Preemergence
green foxtail = test: Test E green foxtail; format: in vivo, Setaria viridis; details: Preemergence
Italian ryegrass = test: Test E Italian ryegrass; format: in vivo, Lolium multiflorum; details: Preemergence
winter wheat [3] = test: Test E winter wheat; format: in vivo, Triticum aestivum; details: Preemergence
wild oat [4] = test: Test E wild oat; format: in vivo, Avena fatua; details: Preemergence
winter barley = test: Test E winter barley; format: in vivo, Hordeum vulgare; details: Preemergence
[5] = Postemergence, Rate 125 g/ha, scale 0 to 10, 0 is no effect, 10 is complete control
[6] = Postemergence, Rate 250 g/ha, scale 0 to 10, 0 is no effect, 10 is complete control
[7] = Preemergence, Rate 62 g/ha, scale 0 to 10 (0 no effect, 10 complete control)
[8] = Rate 500 g/ha, Postemergence, scale 0 to 10, 0 no effect, 10 complete control
[9] = Rate 125 g/ha, 0 to 100 scale (0 no effect, 100 complete control)
[10] = Rate 500 g/ha, 0 to 100 scale (0 no effect, 100 complete control)

CC1CC1n1c(=O)on(C(=O)N(c2ccccc2)C(C)C)c1=O (stereo not drawn) [Compound 370]
Plant response rating, Bedstraw (bedstraw; Rate 62 g/ha, scale 0 to 10 (0 no effect, 10 complete control)): 0 | Bedstraw plant response rating (0 to 10 scale) (bedstraw; Rate 125 g/ha): 3 | Bedstraw plant response rating (bedstraw; Rate 250 g/ha, scale of 0 to 10 where 0 is no effect and 10 is complete control): 3 | Plant response rating, Soybean (soybean; [5]): 2 | Plant response rating, Soybean (soybean; [6]): 3 | Plant response rating, Soybean (soybean; [7]): 0 | Soybean plant response rating (0 to 10 scale) (soybean; Preemergence, Rate 125 g/ha): 0 | Soybean plant response rating (soybean; Preemergence, Rate 250 g/ha): 2 | Soybean plant response rating (soybean; Preemergence, Rate 500 g/ha): 7 | Soybean plant response rating (soybean; Rate 62 g/ha, Postemergence): 1 | Plant response rating, Soybean (soybean; [8]): 4 | Plant response rating, Wild oats (wild oat [1]; [5]): 0 | Plant response rating, Wild oats (wild oat [1]; [6]): 3 | Plant response rating, Wild oats (wild oat [1]; [7]): 0 | Wild oats plant response rating (0 to 10 scale) (wild oat [1]; Preemergence, Rate 125 g/ha): 0 | Wild oats plant response rating (wild oat [1]; Preemergence, Rate 250 g/ha): 2 | Wild oats plant response rating (wild oat [1]; Preemergence, Rate 500 g/ha): 10 | Wild oats plant response rating (wild oat [1]; Rate 62 g/ha, Postemergence): 0 | Plant response rating, Wild oats (wild oat [1]; [8]): 5 | Plant response rating, Barnyardgrass (bamyardgrass; Postemergence (flood test), Rate 125 g/ha, scale 0 to 10, 0 is no effect, 10 is complete control): 0 | Barnyardgrass plant response rating (bamyardgrass; Rate 62 g/ha, Postemergence (flood test species), scale of 0 to 10 where 0 is no effect and 10 is complete control): 0 | Plant response rating, Barnyardgrass (0 to 10 scale, 0 is no effect, 10 is complete control) (bamyardgrass; Rate 62 g/ha, flood test species, Pre-emergence, visual evaluation after twelve to sixteen days): 0 | Barnyardgrass plant response rating (bamyardgrass; Rate 125 g/ha, Pre-emergence, flood test species, scale 0 to 10 where 0 is no effect and 10 is complete control): 0 | Barnyardgrass plant response rating (bamyardgrass; Rate 250 g/ha, Pre-emergence, flood-test species, scale 0 to 10, 0 is no effect, 10 is complete control): 0 | Plant response rating, Barnyardgrass (bamyardgrass; Rate 500 g/ha, listed under Postemergence (flood test species), scale 0 to 10, 0 no effect, 10 complete control): 2 | Barnyardgrass plant response rating (bamyardgrass; Rate 500 g/ha, Pre-emergence, flood test species, scale 0 to 10 (0 no effect, 10 complete control)): 0 | Plant response rating, Barnyardgrass (bamyardgrass; flood test species, listed under Postemergence, Rate 250 g/ha, scale 0 to 10, 0 is no effect, 10 is complete control): 0 | Plant response rating, Wheat (winter) (winter wheat [2]; Rate 125 g/ha): 70 | Plant response rating, Wheat (winter) (winter wheat [2]; Rate 250 g/ha): 80 | Plant response rating, Wheat (winter) (winter wheat [2]; Rate 500 g/ha): 85 | Plant response rating, Blackgrass (blackgrass; [9]): 50 | Plant response rating, Blackgrass (blackgrass; Rate 250 g/ha, 0 to 100 scale): 70 | Plant response rating, Blackgrass (blackgrass; [10]): 100 | Plant response rating, Green foxtail (green foxtail; [9]): 70 | Plant response rating, Green foxtail (green foxtail; Rate 250 g/ha, 0 to 100 scale): 100 | Plant response rating, Green foxtail (green foxtail; [10]): 100 | Plant response rating, I. Ryegrass (Italian ryegrass; [9]): 55 | Plant response rating, I. Ryegrass (Italian ryegrass; Rate 250 g/ha, 0 to 100 scale): 85 | Plant response rating, I. Ryegrass (Italian ryegrass; [10]): 90 | Plant response rating, Wheat (winter) (winter wheat [3]; [9]): 50 | Plant response rating, Wheat (winter) (winter wheat [3]; Rate 250 g/ha, 0 to 100 scale): 40 | Plant response rating, Wheat (winter) (winter wheat [3]; [10]): 60 | Plant response rating, Wild oat (wild oat [4]; [9]): 60 | Plant response rating, Wild oat (wild oat [4]; Rate 250 g/ha, 0 to 100 scale): 75 | Plant response rating, Wild oat (wild oat [4]; [10]): 90 | Plant response rating, Barley (winter) (winter barley; [9]): 60 | Plant response rating, Barley (winter) (winter barley; Rate 250 g/ha, 0 to 100 scale, 0 no effect, 100 complete control): 60 | Plant response rating, Barley (winter) (winter barley; [10]): 70
